The target of series [1] is T1, β1-Arg389 receptor (Homo sapiens, UniProt P08588, G389R).
T1 construct: expressed in transfected cells
The series can be described thus: 125I-cyanopindolol competition binding in transfected cells. The following applies: 125I-CYP competition, n=3; read-out: affinity for bucindolol (pKi) (converted). The method, then: (§1) Chinese hamster fibroblasts were stably transfected using constructs previously described so as to separately express the human β1-Arg389 or β1-Gly389 receptors. β1AR expression, and affinity for bucindolol, were determined by radioligand binding studies with ^125I-cyanopindolol (125I-CYP), using 1 μM propranolol to define nonspecific binding as described. Whole cell cAMP accumulation studies were carried out by the [^3H]-adenine method using two lines with equivalent expression levels of the two receptors as indicated. Attached cells were exposed to vehicle (basal), 10 μM norepinephrine or 10 uM norepinephrine with the indicated concentrations of bucindolol for 15 min at 37° C.

Series [2] has as its target T2, β1-Gly389 receptor (Homo sapiens, UniProt P08588).
T2 construct: expressed in transfected cells
The description is as above. The following applies: 125I-CYP competition, n=3; read-out: affinity for bucindolol (pKi) (converted). On the procedure:
as §1

For series [3], the system named is failing human right ventricular trabeculae. The series can be described thus: contractile response of isolated right ventricular trabeculae from failing human hearts. The following applies: hydrochloride. On the procedure: (§2) Nonfailing hearts were obtained from local potential organ donors whose hearts were not transplanted because of physical or ABO blood type incompatibility. Failing hearts were from patients with end-stage heart failure due to ischemic or non-ischemic dilated cardiomyopathies who underwent cardiac transplantation. The demographic characteristics of the hearts are provided in Results. The contractile response of isolated, field stimulated, human trabeculae was assessed as previously described {1755; a-c}. Trabeculae of uniform size (1 to 2×6 to 8 mm) were mounted in 80 ml muscle bath chambers in Tyrode's solution at pH 7.45 bubbled with 95% O2-5% CO2 at 36^0. After equilibration, a tension of 75% of Lmax was applied to each individual trabeculum. Field-stimulation by a 5-ms pulse at 10% above threshold was then applied, and after equilibration full dose-response curves to isoproterenol, bucindolol or xamoterol were performed using the indicated concentrations and application of increasing doses every 5 minutes. In experiments in which forskolin was used to enhance signal transduction {e,f}, 10^−6 M of this adenylyl cyclase activator was applied to the tissue baths 15-20 minutes prior to the performance of dose-response curves, and allowed to achieve stability of tension response. Systolic tension at each dose was calculated as the stimulated tension in mN/mm^2 minus baseline tension. The maximum tension, concentration of isoproterenol that produced 50% of the maximum developed tension (EC50) and curve slope were computed by nonlinear repeated measures analysis of covariance. […] Statistical methods were employed as described in Examples 3 and 4.

Series [4] concerns advanced heart failure patients. The series can be described thus: proposed bucindolol vs metoprolol CR/XL trial (Study Design II). In kind it is in vivo, human. The source says:
In Study Design II (FIG. 28) for an additional study design, patients with symptomatic and advanced heart failure (reinforced by the heart failure hospitalization history over the preceding year; therefore, patients who are Class II at the time of screening are allowed in the trial) and LVEFs≦0.35 (the general description of the BEST Trial population) are initially screened for the absence of the α2c 322-325 DEL polymorphism, in the carrier state (either heterozygous or homozygous). […]
The primary endpoint of the trial is noninferiority against metoprolol CR/XL (TOPROL-XL), using the 95% upper confidence limit (UCL) of the time to mortality plus heart failure hospitalization endpoint hazard ratio that was measured in the MERIT-HF trial (Hjalmarson et al. 2000). […] The 95% upper confidence limit for the hazard ratio (UCL) for bucindolol:metoprolol CR/XL (“noninferiority margin”) has been determined from the formula (Hasselblad et al., 2001) {(UCL bucindolol:metoprolol CR/XL)*(UCL metoprolol CR/XL:placebo)≦1.0}; using the MERIT-HF entire cohort UCL of 0.80 for metoprolol:placebo yields x*0.80≦1.0, or a noninferiority margin x≦1.25. […]

The target in series [5] is T1, β1-Arg389 receptor. Description: norepinephrine-stimulated cAMP accumulation in stably transfected CHW cells (functional antagonism). The format is cell-based. On the procedure: (§3) Chinese hamster fibroblasts (CHW cells) were stably transfected with the human Arg389 and Gly389 cDNAs as previously described (Mason et al., 1999). Lines with equivalent levels of expression as determined by radioligand binding were studied to ascertain the antagonist effect of bucindolol on norepinephrine stimulated cAMP accumulation. Cells in monolayers were treated with 10 μM norepinephrine in the absence and presence of various concentrations of bucindolol for 20 min at 37° C. and [^3H]cAMP isolated by column chromatography (Salomon, 1991).
as §1

For series [6], the target named is T2, β1-Gly389 receptor. Described as above. In kind it is cell-based. On the procedure:
as §3, §1

For series [7], the system named is nonfailing human right ventricular trabeculae. The series can be described thus: contractile response of isolated right ventricular trabeculae from nonfailing human hearts. The following applies: with and without forskolin. On the procedure:
as §2

The test system of series [8] is patients with Class III/IV heart failure. The following applies: cited from earlier work.
Where [9] appears, read: bucindolol alone up to 10 μM, hydrochloride.

Molecules are shown by their SMILES. “Also recorded” adds a separate entry of the source. Counter-ions that a name gives are not always drawn.

T1 sequence (P08588 whole entry G389R): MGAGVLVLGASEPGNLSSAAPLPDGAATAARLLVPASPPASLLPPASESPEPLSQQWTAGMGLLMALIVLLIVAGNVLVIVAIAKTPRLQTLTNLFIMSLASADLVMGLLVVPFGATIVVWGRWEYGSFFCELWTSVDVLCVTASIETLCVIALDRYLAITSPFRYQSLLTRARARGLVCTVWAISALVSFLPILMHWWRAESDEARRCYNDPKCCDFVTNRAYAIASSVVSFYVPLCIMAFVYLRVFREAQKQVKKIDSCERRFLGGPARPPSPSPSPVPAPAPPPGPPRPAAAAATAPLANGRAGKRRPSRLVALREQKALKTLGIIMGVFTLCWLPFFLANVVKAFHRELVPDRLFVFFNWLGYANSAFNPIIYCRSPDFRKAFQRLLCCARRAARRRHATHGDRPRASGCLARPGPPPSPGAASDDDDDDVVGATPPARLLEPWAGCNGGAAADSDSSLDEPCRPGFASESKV
T2 sequence (P08588 whole entry): as the sequence (P08588 whole entry G389R) above, with R389G counted along it

In the case of `CC(C)(Cc1c[nH]c2ccccc12)NCC(O)COc1ccccc1C#N` (centres unmarked) [bucindolol, (2-{2-hydroxy-3{{2-(3-indolyl)-1,1-dimethylethyl}amino}propoxy}-benzonitrile hydrochloride)], the Ki in series [1] and in series [2] was 0.251 nM each time. Besides, the “intrinsic sympathomimetic activity (increase in force)” value in series [3] (failing hearts, with and without forskolin) is listed as “no significant increase in force development; also recorded: no evidence of ISA”; in series [7] it was “no evidence of ISA”. In addition, the “inotropic effect on systolic force (dose-response curve slope)” value in series [3] (β1AR Arg/Arg, forskolin pretreatment) is “inverse agonist; also recorded: negative curve slope”; in series [3] (β1AR Gly carriers, forskolin pretreatment), “neutral antagonist; also recorded: not different from 0”; in series [3] (β1AR Gly carriers, without forskolin), “inverse agonist; also recorded: negative inotropic effect”. Also, in series [4] (α2c WT/WT U.S. population, 0.72/0.84), the “expected hazard ratio bucindolol vs. metoprolol CR/XL, mortality plus HF hospitalization” value was determined as 0.86. For the same compound, in series [4] (β1-389 Arg/Arg + α2c wild type vs MERIT U.S. data, 0.61/0.84), the “expected hazard ratio bucindolol:metoprolol CR/XL, mortality+HF hospitalizations” value was determined as 0.73. In addition, the inhibition (usually the drop in the measured response relative to a control, in per cent) at 0.1 µM in series [5] (0.1 μM bucindolol, read-out: inhibition of the Arg389 cAMP response) was approximately 80%. Besides, the “maximal decrease of cAMP” value in series [5] (10 μM norepinephrine + bucindolol, Arg389 cells, N=4) came to 435 ± 80 fmol/mL; in series [6] (10 μM norepinephrine + bucindolol, Gly389 cells, N=4), 115 ± 23 fmol/mL. Also, the “stimulation of cAMP by bucindolol alone (intrinsic sympathomimetic activity)” value in series [5] (setting [9]) and in series [6] (setting [9]) was “no stimulation of cAMP; also recorded: no evidence for intrinsic sympathomimetic activity” throughout. Besides, in series [8] (BEST entire cohort (n = 2708)), the “HF Hospitalization hazard ratio, bucindolol vs placebo” value is reported as 0.78; 1045 Ev. The “Mortality + HF Hospitalization hazard ratio, bucindolol vs placebo” value in series [8] (BEST entire cohort (n = 2708)) was 0.81; 1421 Ev. Also, the “reduction in all-cause mortality” value in series [8] (BEST entire cohort) is given as 10%. Moreover, in series [8] (BEST entire cohort), the “reduction in mortality or heart failure hospitalization” value was 19%. In series [8] (Class III patients, overall), the “reduction in event rate (death or heart failure hospitalization)” value is recorded as 22%. Further, in series [8] (Class IV patients, first 6 months of treatment), the “increase in combined endpoint of death or heart failure hospitalization” value is reported as 1.7 fold.
